Laboratory results published in PubChem BioAssay AID222 (DTP/NCI, 2004).
“And” between values parts separate entries of the source, which are not always exact repeats. Identical values can stand only once. Toxic doses and inconclusive results are not listed. Rule for the calls: active = survival T/C of 150% or more; inactive = T/C below 125% in these data.

Test system: C57BL/6 mice, intracerebral ependymoblastoma, median survival T/C
Assay: NCI In Vivo Anticancer Drug Screen. Data for tumor model Ependymoblastoma (intracerebral) in C57BL/6 mice
Settings: endpoint: median survival time, higher = longer survival
Description: The antitumor activity of compounds was measured in mice bearing transplantable tumors. Survival or tumor size were measured and the results are expressed as the measurement made in the treated group (T) divided by the measurement made in the vehicle treated control group (C). The tumor model used in this assay is Ependymoblastoma (intracerebral) in C57BL/6 mice

[1] = dose: 32.0 mg/kg/injection, schedule: Q01DX001 (ip), vehicle: Klucel (hydroxypropylcellulose) (HPC)
[2] = dose: 64.0 mg/kg/injection, schedule: Q01DX001 (ip), vehicle: Klucel (hydroxypropylcellulose) (HPC)
[3] = dose: 128.0 mg/kg/injection, schedule: Q01DX001 (ip), vehicle: Klucel (hydroxypropylcellulose) (HPC)
[4] = dose: 0.05 mg/kg/injection, schedule: Q01DX005 (ip), vehicle: Klucel (hydroxypropylcellulose) (HPC)
[5] = dose: 0.1 mg/kg/injection, schedule: Q01DX005 (ip), vehicle: Klucel (hydroxypropylcellulose) (HPC)
[6] = dose: 0.2 mg/kg/injection, schedule: Q01DX005 (ip), vehicle: Klucel (hydroxypropylcellulose) (HPC)
[7] = dose: 0.4 mg/kg/injection, schedule: Q01DX005 (ip), vehicle: Klucel (hydroxypropylcellulose) (HPC)
[8] = dose: 0.8 mg/kg/injection, schedule: Q01DX005 (ip), vehicle: Klucel (hydroxypropylcellulose) (HPC)

Measured: T/C

O=c1c(O)c(-c2ccc(O)c(O)c2)oc2cc(O)cc(O)c12
inactive: dose: 12.5 mg/kg/injection, schedule: Q01DX005 (ip), vehicle: Klucel (hydroxypropylcellulose) (HPC) 95 % of control | dose: 12.5 mg/kg/injection, schedule: Q01DX005 (ip), vehicle: other 107 % of control | dose: 25.0 mg/kg/injection, schedule: Q01DX005 (ip), vehicle: Klucel (hydroxypropylcellulose) (HPC) 104 % of control | dose: 25.0 mg/kg/injection, schedule: Q01DX005 (ip), vehicle: other 93 % of control | dose: 50.0 mg/kg/injection, schedule: Q01DX005 (ip), vehicle: Klucel (hydroxypropylcellulose) (HPC) 100 % of control | dose: 50.0 mg/kg/injection, schedule: Q01DX005 (ip), vehicle: other 91 % of control | dose: 100.0 mg/kg/injection, schedule: Q01DX005 (ip), vehicle: Klucel (hydroxypropylcellulose) (HPC) 99 % of control | dose: 100.0 mg/kg/injection, schedule: Q01DX005 (ip), vehicle: other 102 % of control | dose: 200.0 mg/kg/injection, schedule: Q01DX005 (ip), vehicle: other 105 % of control

C[C@]1(O)CC[C@H]2[C@@H]3CCC4=CC(=O)CC[C@]4(C)[C@@]3(F)[C@@H](O)C[C@@]21C
inactive: dose: 8.0 mg/kg/injection, schedule: Q01DX005 (ip), vehicle: saline with Tween-80 94 % of control and 99 % of control | dose: 16.0 mg/kg/injection, schedule: Q01DX005 (ip), vehicle: saline with Tween-80 93 % of control and 104 % of control | dose: 32.0 mg/kg/injection, schedule: Q01DX005 (ip), vehicle: saline with Tween-80 102 % of control and 105 % of control | dose: 64.0 mg/kg/injection, schedule: Q01DX005 (ip), vehicle: saline with Tween-80 93 % of control and 96 % of control | dose: 128.0 mg/kg/injection, schedule: Q01DX005 (ip), vehicle: saline with Tween-80 93 % of control and 96 % of control | dose: 256.0 mg/kg/injection, schedule: Q01DX005 (ip), vehicle: saline with Tween-80 94 % of control and 100 % of control | dose: 512.0 mg/kg/injection, schedule: Q01DX005 (ip), vehicle: saline with Tween-80 93 % of control and 103 % of control

CC(CN1CC(=O)NC(=O)C1)N1CC(=O)NC(=O)C1 (stereo not drawn)
inactive: dose: 8.0 mg/kg/injection, schedule: Q01DX001 (ip), vehicle: Klucel (hydroxypropylcellulose) (HPC) 116 % of control | dose: 8.0 mg/kg/injection, schedule: Q01DX005 (ip), vehicle: Klucel (hydroxypropylcellulose) (HPC) 91 % of control and 112 % of control | dose: 16.0 mg/kg/injection, schedule: Q01DX001 (ip), vehicle: Klucel (hydroxypropylcellulose) (HPC) 87 % of control | dose: 16.0 mg/kg/injection, schedule: Q01DX005 (ip), vehicle: Klucel (hydroxypropylcellulose) (HPC) 110 % of control | [1] 89 % of control and 122 % of control | dose: 32.0 mg/kg/injection, schedule: Q01DX005 (ip), vehicle: Klucel (hydroxypropylcellulose) (HPC) 105 % of control | [2] 98 % of control and 118 % of control | dose: 64.0 mg/kg/injection, schedule: Q01DX005 (ip), vehicle: Klucel (hydroxypropylcellulose) (HPC) 90 % of control | [3] 95 % of control

CCC1CC2CN(CCc3c([nH]c4ccccc34)C(C(=O)OC)(c3cc4c(cc3OC)N(C)C3C(O)(C(=O)OC)C(OC(C)=O)C5(CC)C=CCN6CCC43C65)C2)C1 (stereo not drawn)
inactive: [4] 102 % of control | [5] 108 % of control | [6] 108 % of control | [7] 108 % of control | [8] 108 % of control | dose: 1.6 mg/kg/injection, schedule: Q01DX005 (ip), vehicle: Klucel (hydroxypropylcellulose) (HPC) 102 % of control

COc1cc2c(c(OC)c1OC)-c1ccc(OC)c(=O)cc1[C@@H](NC(C)=O)CC2
inactive: dose: 0.05 mg/kg/injection, schedule: Q01DX005 (ip), vehicle: saline 104 % of control | dose: 0.1 mg/kg/injection, schedule: Q01DX005 (ip), vehicle: saline 98 % of control | dose: 0.2 mg/kg/injection, schedule: Q01DX005 (ip), vehicle: saline 108 % of control | dose: 0.4 mg/kg/injection, schedule: Q01DX005 (ip), vehicle: saline 90 % of control | dose: 0.8 mg/kg/injection, schedule: Q01DX005 (ip), vehicle: saline 103 % of control

F
inactive: dose: 16.0 mg/kg/injection, schedule: Q01DX005 (ip), vehicle: saline 98 % of control | dose: 32.0 mg/kg/injection, schedule: Q01DX005 (ip), vehicle: saline 96 % of control

OC(CBr)C(O)C(O)C(O)CBr (stereo not drawn)
inactive: dose: 8.0 mg/kg/injection, schedule: Q01DX005 (ip), vehicle: saline 101 % of control | dose: 12.0 mg/kg/injection, schedule: Q01DX005 (ip), vehicle: saline 89 % of control | dose: 18.0 mg/kg/injection, schedule: Q01DX005 (ip), vehicle: saline 100 % of control | dose: 27.0 mg/kg/injection, schedule: Q01DX005 (ip), vehicle: saline 95 % of control | [1] 108 % of control | dose: 32.0 mg/kg/injection, schedule: Q01DX001 (oral), vehicle: Klucel (hydroxypropylcellulose) (HPC) 96 % of control | dose: 32.0 mg/kg/injection, schedule: Q01DX005 (oral), vehicle: Klucel (hydroxypropylcellulose) (HPC) 97 % of control | dose: 50.0 mg/kg/injection, schedule: Q01DX005 (ip), vehicle: saline 107 % of control | dose: 60.0 mg/kg/injection, schedule: Q01DX005 (ip), vehicle: saline 116 % of control | [2] 111 % of control | dose: 64.0 mg/kg/injection, schedule: Q01DX001 (oral), vehicle: Klucel (hydroxypropylcellulose) (HPC) 99 % of control | dose: 64.0 mg/kg/injection, schedule: Q01DX005 (oral), vehicle: Klucel (hydroxypropylcellulose) (HPC) 102 % of control | dose: 100.0 mg/kg/injection, schedule: Q01DX001 (ip), vehicle: Klucel (hydroxypropylcellulose) (HPC) 103 % of control | dose: 100.0 mg/kg/injection, schedule: Q01DX005 (ip), vehicle: saline 92 % of control and 120 % of control | dose: 100.0 mg/kg/injection, schedule: Q#A X002 (ip), vehicle: Klucel (hydroxypropylcellulose) (HPC) 102 % of control | [3] 109 % of control | dose: 128.0 mg/kg/injection, schedule: Q01DX001 (oral), vehicle: Klucel (hydroxypropylcellulose) (HPC) 100 % of control | dose: 200.0 mg/kg/injection, schedule: Q01DX001 (ip), vehicle: Klucel (hydroxypropylcellulose) (HPC) 102 % of control and 112 % of control and 115 % of control | dose: 200.0 mg/kg/injection, schedule: Q01DX005 (ip), vehicle: saline 96 % of control and 107 % of control | dose: 200.0 mg/kg/injection, schedule: Q#A X002 (ip), vehicle: Klucel (hydroxypropylcellulose) (HPC) 102 % of control and 106 % of control | dose: 256.0 mg/kg/injection, schedule: Q01DX001 (ip), vehicle: Klucel (hydroxypropylcellulose) (HPC) 122 % of control | dose: 256.0 mg/kg/injection, schedule: Q01DX001 (oral), vehicle: Klucel (hydroxypropylcellulose) (HPC) 101 % of control | dose: 400.0 mg/kg/injection, schedule: Q01DX001 (ip), vehicle: Klucel (hydroxypropylcellulose) (HPC) 105 % of control and 106 % of control | dose: 400.0 mg/kg/injection, schedule: Q#A X002 (ip), vehicle: Klucel (hydroxypropylcellulose) (HPC) 111 % of control | dose: 512.0 mg/kg/injection, schedule: Q01DX001 (ip), vehicle: Klucel (hydroxypropylcellulose) (HPC) 96 % of control | dose: 512.0 mg/kg/injection, schedule: Q01DX001 (oral), vehicle: Klucel (hydroxypropylcellulose) (HPC) 100 % of control | dose: 1024.0 mg/kg/injection, schedule: Q01DX001 (ip), vehicle: Klucel (hydroxypropylcellulose) (HPC) 96 % of control | dose: 1024.0 mg/kg/injection, schedule: Q01DX001 (oral), vehicle: Klucel (hydroxypropylcellulose) (HPC) 100 % of control

Nc1nc(=S)c2ncn(C3OC(COC(=O)c4ccc(Cl)cc4)C(OC(=O)c4ccc(Cl)cc4)C3OC(=O)c3ccc(Cl)cc3)c2[nH]1 (stereo not drawn)
inactive: dose: 18.75 mg/kg/injection, schedule: Q01DX005 (ip), vehicle: Klucel (hydroxypropylcellulose) (HPC) 96 % of control | dose: 37.5 mg/kg/injection, schedule: Q01DX005 (ip), vehicle: Klucel (hydroxypropylcellulose) (HPC) 87 % of control

CCC1=C[C@H]2CN(CCc3c([nH]c4ccccc34)[C@@](C(=O)OC)(c3cc4c(cc3OC)N(C)[C@H]3[C@@](O)(C(=O)NC)[C@H](OC(C)=O)[C@]5(CC)C=CCN6CC[C@]43[C@@H]65)C2)C1
inactive: [4] 105 % of control | [5] 98 % of control | [6] 107 % of control | [7] 103 % of control | [8] 93 % of control
